Reference: patent US7138433B2, “Quinone-based therapeutic agent for hepatopathy” (Eisai Co., Ltd., priority 2002, dated 2006)

What was measured:
[1] = test system: MMP-3; assay: MMP protein expression in hepatic cancer cells, Western blot; assay type: cell-based; conditions: VK-II added to hepatic cancer cells
Excerpt: (§1) The action of VK-II according to the present application with regard to invasion/metastasis of hepatic cancer cells was studied in vitro. The action on invasion ability was investigated through an invasion assay using HepG2 cells and a Matrigel chamber. […] Regarding the action on the metastasis ability, the action of VK-II on the expression of extracellular matrix metalloproteinases (MMPs) was investigated using the Western blot method. […] From the above, although the data is in vitro, it can be presumed that VK-II inhibits invasion/metastasis of hepatic cancer cells.

[2] = test system: MMP-1; assay: as above; assay type: cell-based; conditions: VK-II added to hepatic cancer cells
Excerpt: as §1

[3] = test system: DCP positive hepatic cancer patients; assay: Trial Example 1: randomized prospective controlled clinical trial of oral VK-II after hepatic cancer treatment; assay type: in vivo, human; conditions: treated group
Method: A clinical trial (randomized prospective controlled study) was carried out as follows.
Out of patients with hepatocellular carcinoma, ones having a serum DCP level above 60 IU/L (DCP positive hepatic cancer) were included in the trial. On the other hand, patients having portal venous invasion, and patients in which there was already VK metabolism through administration of VK or an anti-VK agent, were excluded from the trial.
126 hepatic cancer patients were given treatment from February 1999 to November 2001. As the hepatic cancer treatment, percutaneous cauterization therapy (RFA and/or PEIT) for HCC, treatment via the blood vessels (TAE or TAI), or surgical excision was carried out. Of the patients, 5 were excluded from the present trial.
Next, the remaining 121 patients were randomly divided into a treated group (n=60) and an untreated group (n=61). The treated group were orally administered 45 mg/day of VK-II (proprietary name Glakay, made by Eisai Co., Ltd.) after the hepatic cancer treatment, while the untreated group were not administered VK-II.
Follow-up tests were carried out after the hepatic cancer treatment. As the follow-up tests, ultrasonography (abdominal echography) was carried out every 3 months, a CT scan was carried out every 6 months, and the levels of the tumor markers alpha-fetoprotein and DCP were measured every one month.
Statistical analysis was carried out on the PVI incidence rate and the survival rate for the two groups. That is, calculations were carried out using the Cox proportional hazard model, and a test was carried out using the log-rank method. The average observation period was 12±8 months.

[4] = test system: HepG2 cells; assay: Invasion assay using HepG2 cells and a Matrigel chamber; assay type: cell-based; conditions: upon adding VK-II; depending on the concentration
Excerpt: as §1

[5] = test system: hepatocellular carcinoma patients after treatment; assay: Trial Example 2: trial of VK-II in inhibiting recurrence of hepatocellular carcinoma after treatment; assay type: in vivo, human; conditions: for risk ratio for recurrence of hepatic cancer: Cox proportional hazard model, control group = 1; for time period until 50% recurrence: control group 10 months
Method: A trial was carried out as follows with an objective of investigating the effect and safety of VK-II in inhibiting recurrence of hepatocellular carcinoma after treatment. 61 cases in which hepatocellular carcinoma was diagnosed and then after treatment therefor necrosis (or curative excision) was judged by contrast CT to have completely occurred were entered from March 1999 to March 2001, the entered cases were divided into two groups, namely a VK-II-administered group for which the end of the patient ID number was an odd number and a non-administered group (control group) for which the end of the patient ID number was an even number, and a VK-II preparation (proprietary name […], made by Eisai Co., Ltd.) was orally administered at a dose of 45 mg/day to the administered group. Contrast CT or MRI was carried out every 3 months, and a statistical analysis of the time period until recurrence was carried out. Specifically, comparison was carried out using the Kaplan-Meier method (log-rank test), and the risk ratio for recurrence was analyzed using the Cox proportional hazard model.

[6] = test system: DCP-producing HCC cell line; conditions: in vitro; Hepatology 1995, 22:876-82; cited from earlier work
[7] = cited from earlier work

CC(C)=CCC/C(C)=C/CC/C(C)=C/CC/C(C)=C/CC1=C(C)C(=O)c2ccccc2C1=O [VK-II, 2-methyl-3-tetraprenyl-1,4-naphthoquinone]
MMP-3 protein expression [1]: inhibited
MMP-1 protein expression [2]: inhibited
PVI incidence rate ([3]; after 1 year, 45 mg/day oral, untreated group 23%): 2%
survival rate ([3]; after 2 years, 45 mg/day oral, untreated group 28% (P=0.044)): 66%
PVI incidence rate ([3]; after 2 years, 45 mg/day oral, untreated group 47% (P=0.018)): 23%
DCP level in the serum after hepatic cancer treatment ([3]; 45 mg/day oral VK-II (Glakay), for 12 months, untreated group gradually increased): remained approximately constant
number of cells passing through the Matrigel [4]: dropped
side effects ([5]; 45 mg/day oral): no side effects
risk ratio for recurrence of hepatic cancer ([5]; HCV cases only): 0.210
risk ratio for recurrence of hepatic cancer ([5]; all cases): 0.329
time period until 50% recurrence ([5]; HCV cases only): 26 months
1-year cumulative recurrence rate ([5]; HCV cases only, control group 61.5%): 7.1%
2-year cumulative recurrence rate ([5]; HCV cases only, control group 87.2%): 37.8%
DCP upon recurrence ([5]; all cases of recurrence in the VK-II-administered group): negative
1-year cumulative recurrence rate ([5]; all cases, 45 mg/day oral, control group 55.2%): 12.5%
2-year cumulative recurrence rate ([5]; all cases, 45 mg/day oral, control group 85.5%): 39.6%
time period until 50% recurrence ([5]; all cases): 26 months
hepatic cancer cumulative recurrence rate compared with the control group ([5]; excluding cases of local recurrence (29 vs 22 cases)): statistically significantly suppressed
hepatic cancer cumulative recurrence rate compared with the control group ([5]; excluding cases of recurrence within 6 months (31 vs 22 cases)): statistically significantly suppressed
cell proliferation [6]: inhibited
solubility in water [7]: hardly dissolves in water
